Test results as given in PMC10367051, “Comprehensive Mechanistic View of the Hydrolysis of Oxadiazole-Based Inhibitors by Histone Deacetylase 6 (HDAC6)” (ACS Chemical Biology, 2023).

Assays:
[1] = molecular target: T1, wild-type zHDAC6 (Danio rerio, UniProt F8W4B7); experiment: Inhibitor hydrolysis in vitro by purified wild-type HDAC6 (LC-MS/MS); format: biochemical; settings: 20 μM 8, 2 μM zHDAC6, 30 °C
T1 construct: Danio rerio HDAC6 (amino acids 440–798; zHDAC6); His (N, cleaved yes); MBP (N, cleaved yes); made in house; host or cells: RIPL Escherichia coli
T1 sequence (F8W4B7 440-798): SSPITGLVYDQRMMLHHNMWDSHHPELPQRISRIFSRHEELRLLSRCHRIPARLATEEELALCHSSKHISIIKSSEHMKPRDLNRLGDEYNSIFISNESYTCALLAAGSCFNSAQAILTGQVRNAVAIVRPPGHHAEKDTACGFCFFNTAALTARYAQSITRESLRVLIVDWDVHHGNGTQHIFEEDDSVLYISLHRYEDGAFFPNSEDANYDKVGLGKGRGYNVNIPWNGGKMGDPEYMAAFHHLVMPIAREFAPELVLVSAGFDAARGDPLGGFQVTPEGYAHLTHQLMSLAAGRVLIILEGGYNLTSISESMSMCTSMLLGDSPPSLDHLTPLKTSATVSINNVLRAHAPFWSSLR
Method: The second catalytic domain of Danio rerio HDAC6 (amino acids 440–798; zHDAC6) was expressed in RIPL Escherichia coli as described previously using the pEC566-zHDAC6 expression vector.[16],[38] Briefly, bacteria were incubated at 37 °C with shaking (250 rpm) until the optical density reached an OD600 = 0.5. Then, the culture was cooled to 18 °C for 1 h, and recombinant protein expression was induced by the addition of 75 μM isopropyl β-D-1-thiogalactopyranoside together with 200 μM ZnSO4. The culture was grown at 18 °C for an additional 18 h and harvested by centrifugation at 5500g for 15 min. […] The purity of protein preparations was monitored by SDS-PAGE (Figure S2).
Mass spectrometry quantification of inhibitors/reaction products was carried out with a Shimadzu LCMS-8040 instrument (Shimadzu, HPLC Prominence system). […] Multiple reaction monitoring (MRM) parameters were optimized for each analyte, and corresponding major CID fragments were used for quantification. Analytes were quantified using corresponding calibration curves generated from pure compounds dissolved in water.
[…] Four microliter aliquots of reaction mixtures were injected into the system directly from the 96-well plate, and inhibitors/reaction products were quantitated as described above.

[2] = tested on: HEK293T cell lysates; experiment: Inhibitor hydrolysis in HEK293T cell lysates (LC-MS/MS); format: in vitro ADME; settings: 20 μM 8, 2.5 mg mL^–1 protein, 37 °C
Method: Mass spectrometry quantification of inhibitors/reaction products was carried out with a Shimadzu LCMS-8040 instrument (Shimadzu, HPLC Prominence system). Analytes were separated on a Kinetex XB-C18 2.6 μm, 100 Å column (50 × 2.1 mm; Phenomenex) in a linear 15–60% CH3CN/H2O gradient containing 0.1% formic acid at a flow rate of 0.8 mL min^–1 over 4 min. Multiple reaction monitoring (MRM) parameters were optimized for each analyte, and corresponding major CID fragments were used for quantification. Analytes were quantified using corresponding calibration curves generated from pure compounds dissolved in water.
HEK293T cells and the HEK293T cell line stably transfected with human HDAC6 were grown in FreeStyle 293 medium supplemented with 1% FBS. Cells were harvested by centrifugation at 500g for 5 min, and cell pellets were resuspended in the lysis buffer (50 mM HEPES, 140 mM NaCl, 10 mM KCl, and 0.5% NP-40 at pH 7.4). Following short sonication (3 × 5 s), the cell lysates were centrifuged at 20,000g for 10 min, supernatants were transferred to fresh tubes, and the total protein concentration was adjusted to 4 mg mL^–1 by the addition of the lysis buffer. […] Following 15 min incubation on ice, stopped reactions were centrifuged at 20,000g for 10 min, and supernatants were analyzed by LC–MS as described above.

Compound: CS(=O)(=O)N(Cc1ccc(-c2nnc(C(F)F)o2)cn1)c1cccc(Cl)c1 [compound 8]
- time of near-complete depletion of the inhibitor [1]: approximately 120 min
- time to full hydrolysis of the inhibitor [1]: < 180 min
- hydrolysis in HEK293T cell lysate [2]: hydrolyzed 8 to 6 and 4
